Earlier results in patent US9011938B2, “Methods and formulations for treating chronic liver disease” (priority 2008, dated 2015).
Where a name gives a salt, the structure may show the parent alone.

Key:
[1] = system: rats with fatty liver induced by a high-fat diet
[2] = system: tumor necrosis factor-alpha (TNF-α); conditions: subjects suffering from alcoholic hepatitis
[3] = system: mice induced with an immunological liver injury
[4] = system: HCV internal ribosome entry site (IRES); conditions: in vitro, dose-dependant, not competitive binding

## COc1ccc2cc3[n+](cc2c1OC)CCc1cc2c(cc1-3)OCO2 [berberine hydrochloride]
[1]
  hepatic fat degeneration: attenuates

## N[C@@H](CCC(=O)N[C@@H](CS)C(=O)NCC(=O)O)C(=O)O [glutathione, Glutathione]
[2]
  TNF-α activity: inhibits

## C[C@@]12C[C@@]3(O)O[C@@H](O1)[C@]1(COC(=O)c4ccccc4)[C@H]3C[C@@]12O[C@@H]1O[C@H](CO)[C@@H](O)[C@H](O)[C@H]1O [paeoniflorin]
[3]
  increase in TNF-alpha, lipopolysaccharide binding protein, and CD14 mRNA expression in mouse liver: significantly decreased
  serum ALT activities: significantly decrease

## cyanocobalamin [vitamin B12]
[4]
  HCV IRES-dependent translation of a reporter gene: inhibit
